Experimental data: publication PMC12298351, “Novel 3,19-(N-Phenyl-3-(4-fluorophenyl)-pyrazole) Acetal of Andrographolide Promotes Cell Cycle Arrest and Apoptosis in MDA-MB-231 Breast Cancer Cells” (Pharmaceuticals, 2025)
“And” between values parts separate entries of the source, which are not always exact repeats. Equal values may be shown once.

Columns and labels:
HCT-15 = settings: HCT-15, Colon; for CC50: read-out: 50% lethal concentration (LC50)
[1] = tested on: MDA-MB-231 breast cancer cells; experiment: MTT cell proliferation assay; type: cell-based; settings: MDA-MB-231, 0-200 µM, 72 h
Experimental: (§1) These MDA-MB-231 breast cancer cells were treated with 1f at different concentrations, i.e., 0, 1.56, 3.125, 6.25, 12.5, 25, 50, 100, and 200 µM, for 72 h.
(§2) MDA-MB-231 breast cancer cells and MCF-10A normal breast epithelial cells (from ATCC, Manassas, VA, USA) were seeded into 96-well plates at a density of 4 × 10^3 cells per well. After overnight incubation at 37 °C, the cells were treated with varying concentrations of compound 1f (0, 1.56, 3.125, 6.25, 12.5, 25, 50, 100, and 200 µM) and incubated for an additional 72 h. Untreated cells served as the negative control. Subsequently, 10 µL of the MTT solution (5 mg/mL) was added to each well, and the plates were incubated for 3 h to assess cell viability. The medium was then discarded, and the absorbance was measured at 570 nm using a microplate reader (Promega GloMax, Madison, WI, USA).

[2] = tested on: MDA-MB-231 breast cancer cell line; experiment: Annexin V-FITC/PI apoptotic assay (FACS); type: cell-based; settings: MDA-MB-231, 3.33 µM
Experimental: Apoptosis is considered a preventive mechanism against cancer dissemination, as it plays a crucial role in eliminating excessively proliferating and mutated cancer cells from the body. Following the administration of cytotoxic drugs as treatment for various types of cancer, apoptosis is a significant contributor to cellular death. […] We proceeded to investigate whether compound 1f triggers apoptosis or not. The MDA-MB-231 breast cancer cell line was treated with 1f for 24, 48, and 72 h. A quantitative evaluation of apoptotic activity was performed using FACS.
To evaluate the pro-apoptotic effect of compound 1f, Annexin V-FITC/PI dual staining was conducted. Cells were seeded into 12-well plates at a density of 1 × 10^5 cells per well and treated with the compound for 24, 48, and 72 h. Post-treatment, the cells were collected using 1X trypsin, including both floating and adherent cells, and centrifuged at 4000 rpm for 5 min. The resulting pellet was resuspended in 100 µL of 1X Annexin V binding buffer and stained with Annexin V-FITC, followed by a 15 min incubation in the dark at 4 °C. Cells were then washed, resuspended in fresh binding buffer, and stained with propidium iodide before immediate analysis via flow cytometry.

MDA-MB-231 cells = experiment: Cell cycle assay, PI staining, flow cytometry; type: cell-based; settings: MDA-MB-231, 24 h
Experimental: Cell proliferation is well associated with the regulation of cell cycle progression. Therefore, the effect of 1f on cell cycle distribution was evaluated by flow cytometry in PI-stained cells.
Cell cycle distribution was assessed by propidium iodide (PI) staining followed by flow cytometric analysis. Cells (3 × 10^5/well) were plated in 6-well plates and allowed to adhere for 24 h. To synchronize the cell cycle, the medium was replaced with serum-free medium for 8 h. After synchronization, cells were treated with various concentrations of compound 1f for 24 h. Following treatment, cells were harvested with 1X trypsin, washed with cold PBS, and fixed in 70% ethanol at 4 °C for 2 h. Fixed cells were washed twice with PBS, then incubated overnight in a staining solution containing RNase A (1 µL, 10 mg/mL) and PI (5 µL, 1 mg/mL) in 1X PBS. Cell cycle distribution was subsequently determined using flow cytometry.

[3] = tested on: MCF-10a (normal breast cells)
Experimental: as §1, §2

SMILES | GI50 (HCT-15) | Total growth inhibition (TGI) (HCT-15) | CC50 (HCT-15) | further results
C=C1CCC2C3(C)COC(c4cn(-c5ccccc5)nc4-c4ccc(C)cc4)OC3CCC2(C)C1CC=C1C(=O)OCC1O (stereo not drawn) [1i] | 1.59 µM | 3.19 µM | 6.38 µM | –
C=C1CCC2C3(C)COC(c4cn(-c5ccccc5)nc4-c4ccc(F)cc4)OC3CCC2(C)C1CC=C1C(=O)OCC1O (stereo not drawn) [1f, 3,19-(N-Phenyl-3-(4-fluorophenyl)-pyrazole) Acetal of Andrographolide] | 1.61 µM | 3.18 µM | 6.28 µM | anti-proliferation activity (MTT) [1]: strong dose-dependent anti-proliferation activity; apoptotic cells (total) ([2]; 24 h): remained almost the same; apoptotic cells (total) ([2]; 48 h): 44%; early apoptosis (Q3) ([2]; 48 h): 10.3%; late apoptosis (Q2) ([2]; 48 h): 33.0%; apoptotic cells (total) ([2]; 72 h): 55%; early apoptosis (Q3) ([2]; 72 h): 14.7%; late apoptosis (Q2) ([2]; 72 h): 40.6%; G1 (%) (MDA-MB-231 cells; 3.33 µM): 77.36 ± 0.69%; G2 (%) (MDA-MB-231 cells; 3.33 µM): 6.94 ± 0.28%; S (%) (MDA-MB-231 cells; 3.33 µM): 14.2% and 14.4 ± 0.95%; G1 (%) (MDA-MB-231 cells; 5.00 µM): 62.83 ± 1.2%; G2 (%) (MDA-MB-231 cells; 5.00 µM): 4.87 ± 0.26%; S (%) (MDA-MB-231 cells; 5.00 µM): 25.2% and 26.5 ± 0.96%; G1 (%) (MDA-MB-231 cells; 6.66 µM): 59.6% and 57.83 ± 1.2%; G2 (%) (MDA-MB-231 cells; 6.66 µM): 4.01% and 3.82 ± 0.20%; S (%) (MDA-MB-231 cells; 6.66 µM): 21.9 ± 1.03%; CC50 [3]: 50 µM
C=C1CCC2C3(C)COC(c4cn(-c5ccccc5)nc4-c4cccc(Cl)c4)OC3CCC2(C)C1CC=C1C(=O)OCC1O (stereo not drawn) [1d] | 1.58 µM | 3.47 µM | 7.64 µM | –
C=C1CCC2C3(C)COC(c4cn(-c5ccccc5)nc4-c4cccc(F)c4)OC3CCC2(C)C1CC=C1C(=O)OCC1O (stereo not drawn) [1c] | 1.57 µM | 3.18 µM | 6.45 µM | –
C=C1CCC2C3(C)COC(c4cn(-c5ccccc5)nc4-c4cccc(Br)c4)OC3CCC2(C)C1CC=C1C(=O)OCC1O (stereo not drawn) [1e] | 1.6 µM | 3.55 µM | 7.85 µM | –
C=C1CCC2C3(C)COC(c4cn(-c5ccccc5)nc4-c4cccc([N+](=O)[O-])c4)OC3CCC2(C)C1CC=C1C(=O)OCC1O (stereo not drawn) [1b] | 1.74 µM | 3.58 µM | 7.37 µM | –
C=C1CCC2C3(C)COC(c4cn(-c5ccccc5)nc4-c4ccc(OC)cc4)OC3CCC2(C)C1CC=C1C(=O)OCC1O (stereo not drawn) [1j] | 1.58 µM | 3.37 µM | 7.2 µM | –
C=C1CCC2C3(C)COC(c4cn(-c5ccccc5)nc4-c4ccc(Cl)cc4)OC3CCC2(C)C1CC=C1C(=O)OCC1O (stereo not drawn) [1g] | 1.59 µM | 3.21 µM | 6.51 µM | –
C=C1CCC2C3(C)COC(c4cn(-c5ccccc5)nc4-c4ccccc4)OC3CCC2(C)C1CC=C1C(=O)OCC1O (stereo not drawn) [1a] | 1.72 µM | 3.45 µM | 6.91 µM | –
C=C1CCC2C3(C)COC(c4cn(-c5ccccc5)nc4-c4ccc(Br)cc4)OC3CCC2(C)C1CC=C1C(=O)OCC1O (stereo not drawn) [1h] | 1.6 µM | 3.3 µM | 6.83 µM | –
